{"source": "patent US11788060B2", "about": "“Small molecule compound composition that efficiently induces differentiation of human pluripotent stem cells into myocardial cells” (Shanghai Institute of Nutrition and Health, Chinese Academy …, priority 2016, dated 2023)", "key": {"stem cells [1]": {"tested_on": "stem cells", "assay": "Annexin V/PI staining of apoptosis and cell death", "assay_type": "cell-based, human", "procedure": "Annexin V/PI staining: Annexin V/PI kit (Roche) was used in this experiment. The cells were cultured in 24-well plates. At the specified time, the cells were digested into single cells with accutase and washed once with PBS. The cells were incubated with staining solution containing Annexin V and PI for 10 minutes. Care was taken to avoid light. 5 volumes of incubation solution was added to dilute thereby stopping the reaction and tested by flow cytometry immediately, the excitation lights were 488 nm and 518 nm, the emission lights were 488-540 nm and 617 nm."}, "stem cells [2]": {"tested_on": "stem cells", "assay": "Cell cycle analysis and BrdU cell proliferation assay", "assay_type": "cell-based, human", "conditions": "compared with DMSO control group", "procedure": "After 10 μM BrdU (Sigma-Aldrich) was added to incubate the cells for 1 hour, cells were harvested, digested and centrifuged at 300 g for 5 minutes. Cells were collected, washed once with PBS containing 0.5% BSA (wash solution) at room temperature, and resuspended in 1 ml of PBS. 3 ml of pre-cooled ethanol was added with shaking and settled for 20 minutes at room temperature. Centrifuge to remove the supernatant, wash once with PBS, centrifuge to remove supernatant, loosen the pellet by flicking a few times, add 1 ml of the freshly prepared denaturation solution (2M HCl) and mix. Allow to stand at room temperature for 20 minutes; add 1 ml of 0.1 M sodium borate (pH 8.5) to neutralize for 2 minutes at room temperature; rinse once and add anti-BrdU antibody (BD Biosciences 1:50 dilution) prepared with PBS containing 0.5% Tween 20/0.5% BSA (Sigma-Aldrich); aspirate primary antibody, rinse with 1 ml wash solution, add Alexa-488-anti-mouse (1:1000), incubate for 20 minutes at room temperature; aspirate secondary antibody, rinse again, resuspend with 0.5 ml 10 μg/ml PI solution and incubate for 30 minutes at room temperature. The supernatant was removed by centrifugation, rinsed again with a wash solution, and tested with flow cytometry."}, "[3]": {"tested_on": "human embryonic stem cells", "assay": "Cell count of stem cells in high-density monolayer culture", "assay_type": "cell-based", "conditions": "DMSO, CHIR or CHIR+rapamycin; 5×10^4/cm^2, days 1-4", "procedure": "The correlated detection was performed under three treatment conditions of DMSO, CHIR and CHIR+rapamycin. […] (Due to the replacement of the culture medium on the 4th day, stem cells underwent massive death because of the rapid changes in the environment)."}, "Parp": {"tested_on": "Parp", "assay": "Western blot of Parp cleavage", "assay_type": "cell-based, human", "conditions": "first 4 days of treatment", "source_text": "Wherein figure (A and B) show the influence of different small molecules on proliferation rate of the stem cells by means of cell cycle analysis and BrdU proliferation detection. (C) Western blot analysis of intracellular Parp protein cleavage to estimate cell death under different treatment. (D) Influence of rapamycin on activity of apoptosis executive caspase 3/7 determined by luciferase reporter system. (E) Detection of the proportion of cell death treated with or without rapamycin by Annexin V/PI staining at the end of the culture on day 3 and day 4. […] All the results are statistically analyzed for at least 3 independently repeated experiments (* P<0.05, ** P<0.01).\nCaspase 3, 6, and 7 are the execution proteins of apoptosis and are mainly responsible for the cleavage of structural proteins and regulatory proteins in the nucleus and cytoplasm."}}, "data": [{"smiles": "Cc1c[nH]c(-c2cnc(NCCNc3ccc(C#N)cn3)nc2-c2ccc(Cl)cc2Cl)n1", "note": "[CHIR99021]", "values": [{"measurement": "proportion of cell death", "setting": "stem cells [1]; 4th day, 24 hours after replacing with RPMI/B27 differentiation medium", "result": "nearly half"}, {"measurement": "Annexin V-positive apoptotic cells", "setting": "stem cells [1]; end of culture on the third day", "result": 25.8, "unit": "%"}, {"measurement": "proportion of cells in S phase and proportion of BrdU positive cells", "setting": "stem cells [2]", "result": "slightly increased"}, {"measurement": "stem cell number", "setting": "[3]", "result": "accelerated the increase in stem cell number in the first 3 days"}, {"measurement": "Parp cleavage band", "setting": "Parp", "result": "gradually increased"}]}]}
